One compound from ChEMBL document CHEMBL5154690, “Discovery of a tricyclic farnesoid X receptor agonist HEC96719, a clinical candidate for treatment of non-alcoholic steatohepatitis” (Eur J Med Chem, 2022) can be followed below.

Series [1] concerns Mus musculus. As to the kind of experiment: Antifibrotic activity in C57BL/6 mouse model of CCI4-induced liver fibrosis assessed as reduction in fibrosis area at 1 mg/kg, po administered once daily for 4 weeks. It counts as functional, organism-based.
The target of series [2] is T1, Bile acid receptor (Homo sapiens, UniProt Q96RI1).
T1 sequence (Q96RI1 whole entry): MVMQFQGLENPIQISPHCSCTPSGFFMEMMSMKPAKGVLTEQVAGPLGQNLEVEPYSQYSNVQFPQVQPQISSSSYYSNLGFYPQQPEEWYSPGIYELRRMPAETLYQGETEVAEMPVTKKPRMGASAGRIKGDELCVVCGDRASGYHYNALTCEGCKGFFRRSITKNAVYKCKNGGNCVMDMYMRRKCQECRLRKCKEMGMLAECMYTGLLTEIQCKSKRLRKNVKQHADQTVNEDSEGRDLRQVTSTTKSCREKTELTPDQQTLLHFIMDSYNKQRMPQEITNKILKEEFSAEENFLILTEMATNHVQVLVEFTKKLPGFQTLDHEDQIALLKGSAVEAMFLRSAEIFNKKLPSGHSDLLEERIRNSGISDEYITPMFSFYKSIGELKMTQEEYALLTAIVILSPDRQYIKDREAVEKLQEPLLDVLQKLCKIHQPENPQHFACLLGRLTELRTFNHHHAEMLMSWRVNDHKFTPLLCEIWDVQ
In words: Agonist activity at FXR-LBD (unknown origin) assessed as induction of coactivator SRC-1 peptide recruitment measured by TR-FRET assay. (TR-FRET usually uses a lanthanide donor and a delayed reading to cut background.)

Series [3] is described as follows: Mutagenecity in Salmonella typhimurium TA102 measured by Ames test. It counts as toxicity. Conditions: salmonella enterica subsp. enterica serovar typhimurium. (In general: The Ames test uses bacterial strains that need an amino acid and regain growth without it when mutated back.)
Series [4] is described as follows: Drug metabolism in bile of Sprague-Dawley rat assessed as production of toxic metabolites at 4.5 mg/kg, po administered as C14-lableled compound with single dose. The class given is ADME, organism-based. Conditions: in vivo.
Series [5] is described as follows: Mutagenecity in Salmonella typhimurium TA97A measured by Ames test. It counts as toxicity. Conditions: salmonella enterica subsp. enterica serovar typhimurium.
A short description of series [6]: Drug metabolism in urine of Sprague-Dawley rat assessed as production of toxic metabolites at 4.5 mg/kg, po administered as C14-lableled compound with single dose. It counts as ADME, organism-based. The following applies: in vivo.
Series [7] in a line: Clearance in male Beagle dog at 1 mg/kg, iv measured by LC-MS/MS analysis. It counts as ADME, organism-based, Canis lupus familiaris. The following applies: in vivo.
Series [8] can be described thus: Drug recovery in skin of male Sprague-Dawley rat at 4.5 mg/kg, po administered as C14-lableled compound and assessed as radioactivity and measured at 6 hrs. The class given is ADME, organism-based, Skin of body. Conditions: in vivo, BLD = below limit of detection.
The subject of series [9] is Mus musculus. As to the kind of experiment: Anti-NASH activity against high fat (HF) diet-induced nonalcoholic steatohepatitis in leptin-deficient ob/ob mouse model assessed as reduction in NASH activity score (NAS) at 3 mg/kg, po administered once daily from week 5 to 10. The class given is functional, organism-based.
Series [10] addresses T1, Bile acid receptor. In words: Agonist activity at human FXR expressed in HEK293T cells by luciferase reporter assay. The class given is cell-based. For orientation: Reporter assays use an easily measured gene product as a stand-in for the process of interest.
Series [11] relates to Mus musculus. In words: Anti-NASH activity in western style diet-induced nonalcoholic steatohepatitis model of male C57BL/6 mouse assessed as reduction in liver fibrosis at 1 mg/kg, po administered once daily from week 32 to 44. The class given is functional, organism-based.
Series [12] in a line: Drug recovery in liver of male Sprague-Dawley rat at 4.5 mg/kg, po administered as C14-lableled compound and assessed as radioactivity and measured at 1 hr. It counts as ADME, organism-based. Conditions: in vivo.
The nature of series [13]: Drug recovery in plasma of male Sprague-Dawley rat at 4.5 mg/kg, po administered as C14-lableled compound and assessed as radioactivity and measured at 1 hr. The following applies: in vivo. It counts as ADME, organism-based.
Series [14] deals with Mus musculus. As to the kind of experiment: Antifibrotic activity in C57BL/6 mouse model of CCI4-induced liver fibrosis assessed as decrease in serum ALT level at 1 mg/kg, po administered once daily for 4 weeks. The class given is functional, organism-based.
Series [15] deals with T2, Bile acid receptor (Rattus norvegicus) (UniProt Q62735).
T2 sequence (whole entry): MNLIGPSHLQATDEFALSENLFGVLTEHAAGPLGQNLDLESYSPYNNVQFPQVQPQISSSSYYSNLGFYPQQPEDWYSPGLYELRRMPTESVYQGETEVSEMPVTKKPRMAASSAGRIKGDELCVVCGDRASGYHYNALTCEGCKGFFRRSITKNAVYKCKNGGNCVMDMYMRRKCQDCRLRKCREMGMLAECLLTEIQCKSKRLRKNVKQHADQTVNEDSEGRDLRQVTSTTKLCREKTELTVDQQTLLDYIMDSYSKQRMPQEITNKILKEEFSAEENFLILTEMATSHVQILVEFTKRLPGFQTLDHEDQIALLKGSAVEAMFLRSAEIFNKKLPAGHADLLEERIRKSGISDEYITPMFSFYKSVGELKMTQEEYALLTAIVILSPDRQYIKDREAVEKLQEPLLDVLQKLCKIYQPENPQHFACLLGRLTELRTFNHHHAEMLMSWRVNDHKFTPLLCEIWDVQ
In words: In vivo activation of FXR in male Sprague-Dawley rat assessed as fold increase in ileum FGF15 level at 5 mg/kg, po administered as single dose measured at 1 hr by RT-qPCR assay. It counts as functional, organism-based.

Series [16] concerns Mus musculus. In words: Antifibrotic activity in C57BL/6 mouse model of CCI4-induced liver fibrosis assessed as decrease in serum TBIL level at 1 mg/kg, po administered once daily for 4 weeks. The class given is functional, organism-based.
The nature of series [17]: Drug recovery in spleen of male Sprague-Dawley rat at 4.5 mg/kg, po administered as C14-lableled compound and assessed as radioactivity and measured at 0.25 hrs. The class given is ADME, organism-based. Conditions: in vivo.
A short description of series [18]: Ratio of drug level in pancreas to plasma in male Sprague-Dawley rat at 4.5 mg/kg, po administered as C14-lableled compound and measured at 0.25 to 6 hrs. It counts as ADME, organism-based. Conditions: other tissue, time 0.25-6 hrs.
Series [19] can be described thus: Drug recovery in lung of male Sprague-Dawley rat at 4.5 mg/kg, po administered as C14-lableled compound and assessed as radioactivity and measured at 6 hrs. The class given is ADME, organism-based. The following applies: in vivo.
The target in series [20] is T3, Peroxisome proliferator-activated receptor alpha (Homo sapiens, UniProt Q07869).
T3 sequence (Q07869 whole entry): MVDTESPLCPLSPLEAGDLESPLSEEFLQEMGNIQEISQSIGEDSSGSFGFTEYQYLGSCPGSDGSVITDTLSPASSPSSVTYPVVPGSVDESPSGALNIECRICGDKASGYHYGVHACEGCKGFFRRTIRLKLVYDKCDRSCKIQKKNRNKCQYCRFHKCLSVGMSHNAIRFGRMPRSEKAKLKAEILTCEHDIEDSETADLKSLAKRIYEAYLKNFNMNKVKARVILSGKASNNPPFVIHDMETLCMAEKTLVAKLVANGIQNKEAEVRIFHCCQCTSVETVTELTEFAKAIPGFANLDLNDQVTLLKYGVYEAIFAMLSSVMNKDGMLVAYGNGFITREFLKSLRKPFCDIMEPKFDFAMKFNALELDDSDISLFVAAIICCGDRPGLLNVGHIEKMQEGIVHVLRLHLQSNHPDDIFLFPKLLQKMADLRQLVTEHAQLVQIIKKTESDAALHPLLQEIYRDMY
As to the kind of experiment: Agonist activity at PPARalpha (unknown origin).

A short description of series [21]: Drug recovery in skin of male Sprague-Dawley rat at 4.5 mg/kg, po administered as C14-lableled compound and assessed as radioactivity and measured at 24 hrs. Conditions: in vivo, BLD = below limit of detection. The class given is ADME, organism-based, Skin of body.
Series [22] in a line: Drug recovery in brain of male Sprague-Dawley rat at 4.5 mg/kg, po administered as C14-lableled compound and assessed as radioactivity and measured at 6 hrs. Conditions: in vivo, BLD = below limit of detection. The class given is ADME, organism-based.

The structures appear in SMILES notation. The source made the active and inactive calls. The rule behind the calls is not given here.

One may read the EC50 as the concentration that produces a half-maximal response. As usually defined, the clearance is a measure of how efficiently the substance is removed, as volume per time. A high value points to a high capacity for elimination. Take `O=C(O)c1ccc2c(c1)Oc1ccc(OCc3c(-c4c(Cl)cccc4Cl)noc3C3CC3)nc1C1(CC1)C2`: the outcome in the series with Mus musculus [1], in the series with Mus musculus [9], in the series with Mus musculus [11], in the series with Mus musculus [14] and with Mus musculus [16] was Active. In addition, the EC50 at Bile acid receptor [2] was 1.37 nM; at Bile acid receptor [10], 1.55 nM; in [20], more than 10000 nM. Moreover, the Activity result in series [3] and in series [5] was “Non-Toxic” each time. Moreover, the Drug metabolism entry in series [4] and in [6] was “Metabolite_Notdetected” each time. Moreover, in series [7], the clearance came to 18.4 mL/min/kg. Moreover, the Drug recovery entry was “Bld” in series [8]; 6520 ngequiv/g in series [12]; 305 ngequiv/g in series [13]; 192 ngequiv/g in series [17]; 63.4 ngequiv/g in series [19]; “Bld” in series [21]. Besides, the Drug recovery result in series [22] was “Bld”. Besides, the fold change (FC) in [15] worked out at 24. In addition, the Ratio in [18] is given as 0.8.
